Measurements reported in patent US20230117034A1, “PYRAZOLOTRIAZINES” (Bayer Aktiengesellschaft, priority 2019, published 2023).

Experiments:
CDK9/CycT1 = biological target: T1, CDK9/CycT1 (Homo sapiens, UniProt P50750); assay: CDK9/CycT1 high ATP kinase assay (TR-FRET, 2 mM ATP); assay type: biochemical; conditions: 2 mM ATP (high ATP); median; read-out: CDK9/CyclinT1, 2 mM ATP (high ATP), IC50 (median)
T1 construct: Recombinant full-length His-tagged human CDK9 and CycT1; purchased Life Technologies PV4131; host or cells: insect cells
T1 sequence (P50750 whole entry): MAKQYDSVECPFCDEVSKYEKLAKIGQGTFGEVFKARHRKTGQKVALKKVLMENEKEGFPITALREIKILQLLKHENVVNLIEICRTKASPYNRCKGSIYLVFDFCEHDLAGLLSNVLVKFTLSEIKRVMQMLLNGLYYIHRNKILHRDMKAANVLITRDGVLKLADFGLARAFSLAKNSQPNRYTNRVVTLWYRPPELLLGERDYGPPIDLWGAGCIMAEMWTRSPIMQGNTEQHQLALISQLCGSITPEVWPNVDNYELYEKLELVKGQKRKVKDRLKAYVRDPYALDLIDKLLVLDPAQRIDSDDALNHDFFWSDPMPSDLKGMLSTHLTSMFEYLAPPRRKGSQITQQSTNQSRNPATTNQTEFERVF
T1 sequence (O60563 whole entry partner): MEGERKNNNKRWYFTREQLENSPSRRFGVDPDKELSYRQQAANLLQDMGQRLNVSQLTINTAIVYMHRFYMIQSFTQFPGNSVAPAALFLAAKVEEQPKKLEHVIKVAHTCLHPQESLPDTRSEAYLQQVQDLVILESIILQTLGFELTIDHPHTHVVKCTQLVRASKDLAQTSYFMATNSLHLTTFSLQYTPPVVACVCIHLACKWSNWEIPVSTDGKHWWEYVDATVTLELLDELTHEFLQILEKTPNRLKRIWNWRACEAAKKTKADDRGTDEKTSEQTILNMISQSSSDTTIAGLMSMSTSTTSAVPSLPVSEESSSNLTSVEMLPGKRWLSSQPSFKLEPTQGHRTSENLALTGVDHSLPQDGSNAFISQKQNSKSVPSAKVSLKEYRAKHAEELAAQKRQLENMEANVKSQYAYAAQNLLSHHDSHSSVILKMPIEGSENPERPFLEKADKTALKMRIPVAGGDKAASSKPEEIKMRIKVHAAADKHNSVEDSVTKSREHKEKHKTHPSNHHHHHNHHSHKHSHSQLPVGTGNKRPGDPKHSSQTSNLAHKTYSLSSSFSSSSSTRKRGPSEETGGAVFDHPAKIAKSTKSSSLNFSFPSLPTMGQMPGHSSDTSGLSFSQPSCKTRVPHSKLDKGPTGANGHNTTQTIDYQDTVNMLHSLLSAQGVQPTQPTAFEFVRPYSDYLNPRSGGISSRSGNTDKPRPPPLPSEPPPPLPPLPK
Summary of the method: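 Full-length His-tagged human CDK9/CycT1 (insect cell, ~0.5 μg/mL) preincubated 15 min at 22 °C with compound in Tris pH 8.0, MgCl2, DTT buffer before reaction with biotinylated peptide substrate at high ATP (2 mM).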

[1] = biological target: T2, CYCLIN K (nuclear staining in CAL-120 cells) (Homo sapiens, UniProt O75909); assay: CYCLIN K nuclear protein level: immunofluorescence high content analysis (CAL-120); assay type: cell-based; conditions: 24 h, 50% reduction of nuclear CCNK staining intensity, median, read-out: CYCLIN K degradation IF, DC50-[mol/l] (median)
T2 construct: endogenous in cells; host or cells: CAL-120 human breast cancer cells (DSMZ ACC 459)
T2 sequence (O75909 whole entry): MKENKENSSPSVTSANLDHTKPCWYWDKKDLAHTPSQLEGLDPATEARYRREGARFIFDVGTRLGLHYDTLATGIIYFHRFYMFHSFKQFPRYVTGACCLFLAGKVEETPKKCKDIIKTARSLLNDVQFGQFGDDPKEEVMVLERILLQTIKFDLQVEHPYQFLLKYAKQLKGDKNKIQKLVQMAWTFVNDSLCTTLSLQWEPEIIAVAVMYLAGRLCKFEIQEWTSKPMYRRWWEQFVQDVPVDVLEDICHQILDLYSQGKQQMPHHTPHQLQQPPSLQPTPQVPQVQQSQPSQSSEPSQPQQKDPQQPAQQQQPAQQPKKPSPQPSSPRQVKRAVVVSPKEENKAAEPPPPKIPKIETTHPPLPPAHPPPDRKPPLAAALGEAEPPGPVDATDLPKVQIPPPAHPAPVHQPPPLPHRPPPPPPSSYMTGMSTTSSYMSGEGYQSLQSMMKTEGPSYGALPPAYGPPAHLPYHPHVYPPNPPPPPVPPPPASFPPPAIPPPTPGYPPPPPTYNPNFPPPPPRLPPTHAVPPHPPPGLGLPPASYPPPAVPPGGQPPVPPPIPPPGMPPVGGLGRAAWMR
T2 sequence (Q9NYV4 whole entry partner): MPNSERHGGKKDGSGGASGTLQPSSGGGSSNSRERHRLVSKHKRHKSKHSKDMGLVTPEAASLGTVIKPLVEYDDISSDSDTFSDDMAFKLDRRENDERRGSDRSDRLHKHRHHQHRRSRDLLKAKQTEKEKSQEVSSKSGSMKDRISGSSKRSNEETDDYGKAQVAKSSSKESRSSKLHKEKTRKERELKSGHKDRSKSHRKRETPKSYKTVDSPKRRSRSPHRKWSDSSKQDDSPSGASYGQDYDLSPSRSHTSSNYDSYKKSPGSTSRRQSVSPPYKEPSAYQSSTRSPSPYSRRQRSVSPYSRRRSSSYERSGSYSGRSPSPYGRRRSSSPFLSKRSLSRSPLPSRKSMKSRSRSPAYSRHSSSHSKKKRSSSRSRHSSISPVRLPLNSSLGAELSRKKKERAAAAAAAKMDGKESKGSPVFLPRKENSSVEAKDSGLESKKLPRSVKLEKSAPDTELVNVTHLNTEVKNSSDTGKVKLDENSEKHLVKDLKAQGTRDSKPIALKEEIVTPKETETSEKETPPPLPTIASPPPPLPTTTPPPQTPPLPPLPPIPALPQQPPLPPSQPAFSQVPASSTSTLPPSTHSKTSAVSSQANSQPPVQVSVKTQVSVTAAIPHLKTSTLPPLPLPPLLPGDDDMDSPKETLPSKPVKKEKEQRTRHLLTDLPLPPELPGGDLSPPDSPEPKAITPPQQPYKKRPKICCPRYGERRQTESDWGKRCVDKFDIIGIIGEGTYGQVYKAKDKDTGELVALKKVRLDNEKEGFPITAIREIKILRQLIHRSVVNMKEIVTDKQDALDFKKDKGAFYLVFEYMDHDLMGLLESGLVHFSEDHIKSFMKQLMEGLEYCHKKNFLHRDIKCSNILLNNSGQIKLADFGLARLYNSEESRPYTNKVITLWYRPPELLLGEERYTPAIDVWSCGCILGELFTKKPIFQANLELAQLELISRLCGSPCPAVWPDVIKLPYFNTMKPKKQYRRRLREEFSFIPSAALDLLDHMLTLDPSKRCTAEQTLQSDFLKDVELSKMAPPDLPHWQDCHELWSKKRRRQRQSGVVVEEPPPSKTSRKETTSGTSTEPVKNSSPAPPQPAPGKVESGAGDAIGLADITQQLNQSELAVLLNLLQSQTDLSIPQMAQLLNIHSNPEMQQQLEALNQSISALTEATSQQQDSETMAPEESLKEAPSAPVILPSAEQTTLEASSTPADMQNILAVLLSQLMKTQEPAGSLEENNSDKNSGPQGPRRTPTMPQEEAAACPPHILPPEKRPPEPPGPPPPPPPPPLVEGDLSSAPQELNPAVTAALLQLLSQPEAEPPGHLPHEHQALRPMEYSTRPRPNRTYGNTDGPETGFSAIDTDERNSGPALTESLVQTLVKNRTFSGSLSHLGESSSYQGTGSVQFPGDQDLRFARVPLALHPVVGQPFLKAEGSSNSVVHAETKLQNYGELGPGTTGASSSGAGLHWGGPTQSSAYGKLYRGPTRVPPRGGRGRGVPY
Summary of the method: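 CAL-120 breast cancer cells treated in dose-response for 24 h at 37 °C, PFA-fixed and immunostained for cyclin K with Hoechst counterstain. Confocal imaging quantified nuclear intensity; DC50 is the concentration giving 50% reduction of nuclear CCNK staining, normalized to DMSO and control.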

[2] = tested on: BRCA1 mRNA expression in MDA-MB-231 cells; assay: qRT-PCR assay: BRCA1 mRNA expression in MDA-MB-231; assay type: cell-based, human; conditions: Homo sapiens, MDA-MB-231, Inhibition of BRCA1 mRNA expression in MDA-MB-231 cells; median; read-out: RTqPCR-MDA-MB-231, IC50, BRCA1 (median)
Summary of the method: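 MDA-MB-231 cells, 200,000/well, treated 24 h after plating with continuous 24 h compound exposure. RNA extracted, 600 ng reverse-transcribed, BRCA1 measured by RT-qPCR normalized to GAPDH.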

[3] = biological target: T3, CDK12 (nuclear staining in CAL-120 cells) (Homo sapiens, UniProt Q9NYV4); assay: CDK12 nuclear protein level: immunofluorescence/high content analysis (CAL-120); assay type: cell-based; conditions: for DC50: CAL-120 cells, 24 h, immunofluorescence, 50% reduction of nuclear CDK12 staining intensity, median, read-out: CDK12 degradation IF, DC50- [mol/l] (median); for (IC50 CDK12 high ATP) to (Degradation DC50 CDK12) ratio: ratio of IC50 CDK12 high ATP kinase assay to DC50 CDK12 degradation (IF, CAL-120)
T3 construct: endogenous in cells; host or cells: CAL-120 human breast cancer cells (DSMZ ACC 459)
T3 sequence (Q9NYV4 whole entry): as the sequence (Q9NYV4 whole entry partner) above
T3 sequence (O75909 whole entry partner): as the sequence (O75909 whole entry) above
Summary of the method: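 CAL-120 cells were treated with compound for 24 h at 37 °C, fixed with PFA and immunostained for CDK12. Nuclear CDK12 intensity was quantified by automated image analysis and normalized to DMSO and control. DC50 is the concentration giving 50% reduction of nuclear staining.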

Compound | IC50 (CDK9/CycT1) | DC50 [1] | IC50 [2] | DC50 [3] | (IC50 CDK12 high ATP) to (Degradation DC50 CDK12) ratio [3]
Fc1cccc(-c2cnn3c(NCc4nc5ccccc5[nH]4)nc(N4CCOCC4)nc23)c1 [Example 91, N-[(1H-benzimidazol-2-yl)methyl]-8-(3-fluorophenyl)-2-(morpholin-4-yl)pyrazolo[1,5-a][1,3,5]triazin-4-amine] | > 20000 nM | 19.6 nM | 85.5 nM | 42.8 nM | >133
CCc1cnn2c(NCc3nc4c(F)c(F)ccc4[nH]3)nc(N3CCN(C)CC3)nc12.O=CO [Example 435, formic acid N-[(4,5-difluoro-1H-benzimidazol-2-yl)methyl]-8-ethyl-2-(4-methylpiperazin-1-yl)pyrazolo[1,5-a][1,3,5]triazin-4-amine] | > 20000 nM | 0.274 nM | 0.959 nM | 0.591 nM | 9674
CC(C)c1cnn2c(NCc3nc4ccccc4[nH]3)nc(N3CCN(C)CC3)nc12 [Example 2, N-[(1H-benzimidazol-2-yl)methyl]-2-(4-methylpiperazin-1-yl)-8-(propan-2-yl)pyrazolo[1,5-a][1,3,5]triazin-4-amine] | > 20000 nM | 5.04 nM | 20.8 nM | 8.46 nM | >2365
Clc1ccc(-c2cnc(CNc3nc(N4CCOCC4)nc4c(Br)cnn34)[nH]2)cc1 [Example 72, 8-bromo-N-{[5-(4-chlorophenyl)-1H-imidazol-2-yl]methyl}-2-(morpholin-4-yl)pyrazolo[1,5-a][1,3,5]triazin-4-amine] | 6720 nM | 11.4 nM | 38.6 nM | 10 nM | 55
c1ccc2[nH]c(CNc3nc(N4CCOCC4)nc4c(C5CC5)cnn34)nc2c1 [Example 92, N-[(1H-benzimidazol-2-yl)methyl]-8-cyclopropyl-2-(morpholin-4-yl)pyrazolo[1,5-a][1,3,5]triazin-4-amine] | > 20000 nM | 0.381 nM | 13.3 nM | 2.36 nM | 1378
COc1cccc(-c2cnc(CNc3nc(N4CCOCC4)nc4c(Br)cnn34)[nH]2)c1 [Example 80, 8-bromo-N-{[5-(3-methoxyphenyl)-1H-imidazol-2-yl]methyl}-2-(morpholin-4-yl)pyrazolo[1,5-a][1,3,5]triazin-4-amine] | 5430 nM | 1.34 nM | 18.3 nM | 4.28 nM | 276
CN1CCN(c2nc(NCc3nc4cc(C(F)(F)F)ccc4[nH]3)n3ncc(C4CC4)c3n2)CC1 [Example 313, 8-cyclopropyl-2-(4-methylpiperazin-1-yl)-N-{[5-(trifluoromethyl)-1H-benzimidazol-2-yl]methyl}pyrazolo[1,5-a][1,3,5]triazin-4-amine] | > 20000 nM | 1.57 nM | 22.1 nM | 26.8 nM | 679
Fc1ccc(-c2cnc(CNc3nc(N4CCOCC4)nc4c(Br)cnn34)[nH]2)cc1 [Example 66, 8-bromo-N-{[5-(4-fluorophenyl)-1H-imidazol-2-yl]methyl}-2-(morpholin-4-yl)pyrazolo[1,5-a][1,3,5]triazin-4-amine] | 4480 nM | 2.45 nM | 624 nM | 130 nM | >44

Continued, values first:

IC50 (CDK9/CycT1) | DC50 [1] | IC50 [2] | DC50 [3] | (IC50 CDK12 high ATP) to (Degradation DC50 CDK12) ratio [3] | Compound
9350 nM | 0.357 nM | 13.7 nM | 4.05 nM | 1092 | Brc1cnn2c(NCc3ncc(-c4ccccn4)[nH]3)nc(N3CCOCC3)nc12 [Example 90, 8-bromo-2-(morpholin-4-yl)-N-{[5-(pyridin-2-yl)-1H-imidazol-2-yl]methyl}pyrazolo[1,5-a][1,3,5]triazin-4-amine]
3560 nM | 4.89 nM | 27.9 nM | 12.5 nM | 440 | Brc1cnn2c(NCc3nnc(-c4ccccc4)[nH]3)nc(N3CCCC3)nc12 [Example 64, 8-bromo-N-[(5-phenyl-4H-1,2,4-triazol-3-yl)methyl]-2-(pyrrolidin-1-yl)pyrazolo[1,5-a][1,3,5]triazin-4-amine]
569 nM | 11.7 nM | 55.9 nM | 7.9 nM | 79 | OC[C@@H]1CCCCN1c1nc(NCc2nnc(-c3ccccc3)[nH]2)n2ncc(Br)c2n1 [Example 70, [(2S)-1-(8-bromo-4-{[(5-phenyl-4H-1,2,4-triazol-3-yl)methyl]amino}pyrazolo[1,5-a][1,3,5]triazin-2-yl)piperidin-2-yl]methanol]
> 5710 nM | 16.4 nM | 14.4 nM | 4.15 nM | 245 | Brc1cnn2c(NCc3nnc(-c4ccccc4)[nH]3)nc(N3CC4(COC4)C3)nc12 [Example 65, 8-bromo-2-(2-oxa-6-azaspiro[3.3]heptan-6-yl)-N-[(5-phenyl-4H-1,2,4-triazol-3-yl)methyl]pyrazolo[1,5-a][1,3,5]triazin-4-amine]
> 19400 nM | 0.814 nM | 24.8 nM | 3.77 nM | 727 | OCC1COCCN1c1nc(NCc2nc3ccccc3[nH]2)n2ncc(Br)c2n1 (stereo not shown) [Example 67, (4-{4-[(1H-benzimidazol-2-ylmethyl)amino]-8-bromopyrazolo[1,5-a][1,3,5]triazin-2-yl}morpholin-3-yl)methanol]
5130 nM | 0.667 nM | 10.7 nM | 2.16 nM | 1196 | COc1ccccc1-c1cnc(CNc2nc(N3CCOCC3)nc3c(Br)cnn23)[nH]1 [Example 87, 8-bromo-N-{[5-(2-methoxyphenyl)-1H-imidazol-2-yl]methyl}-2-(morpholin-4-yl)pyrazolo[1,5-a][1,3,5]triazin-4-amine]
9380 nM | 0.735 nM | 49.5 nM | 5.15 nM | 129 | C[C@@H]1CN(c2nc(NCc3nc4ccccc4[nH]3)n3ncc(Br)c3n2)C[C@H](C)O1 [Example 73, N-[(1H-benzimidazol-2-yl)methyl]-8-bromo-2-[(2R,6S)-2,6-dimethylmorpholin-4-yl]pyrazolo[1,5-a][1,3,5]triazin-4-amine]
5340 nM | 2.85 nM | 43.4 nM | 13.3 nM | 415 | CC1(C)CN(c2nc(NCc3nnc(-c4ccccc4)[nH]3)n3ncc(Br)c3n2)CCO1 [Example 68, 8-bromo-2-(2,2-dimethylmorpholin-4-yl)-N-[(5-phenyl-4H-1,2,4-triazol-3-yl)methyl]pyrazolo[1,5-a][1,3,5]triazin-4-amine]
3440 nM | 11.8 nM | 118 nM | 21.2 nM | 98 | Brc1cnn2c(NCc3ncc(-c4cccnc4)[nH]3)nc(N3CCOCC3)nc12 [Example 84, 8-bromo-2-(morpholin-4-yl)-N-{[5-(pyridin-3-yl)-1H-imidazol-2-yl]methyl}pyrazolo[1,5-a][1,3,5]triazin-4-amine]
> 20000 nM | 4.09 nM | 341 nM | 20.7 nM | 556 | COC(=O)C1CCN(c2nc(NCc3nc4ccccc4[nH]3)n3ncc(Br)c3n2)CC1 [Example 63, methyl 1-(4-{[(1H-benzimidazol-2-yl)methyl]amino}-8-bromopyrazolo[1,5-a][1,3,5]triazin-2-yl)piperidine-4-carboxylate]
5270 nM | 0.576 nM | 17.1 nM | 3.95 nM | 478 | Fc1ccccc1-c1cnc(CNc2nc(N3CCOCC3)nc3c(Br)cnn23)[nH]1 [Example 86, 8-bromo-N-{[5-(2-fluorophenyl)-1H-imidazol-2-yl]methyl}-2-(morpholin-4-yl)pyrazolo[1,5-a][1,3,5]triazin-4-amine]
1760 nM | 2.77 nM | 21.1 nM | 4.34 nM | 998 | OC[C@H]1CCCCN1c1nc(NCc2nnc(-c3ccccc3)[nH]2)n2ncc(Br)c2n1 [Example 71, [(2R)-1-(8-bromo-4-{[(5-phenyl-4H-1,2,4-triazol-3-yl)methyl]amino}pyrazolo[1,5-a][1,3,5]triazin-2-yl)piperidin-2-yl]methanol]
